The test system of experiment [1] is HIF-1a. Description: HIF-1a induction in digitonin-permeabilized human glioma cells (U87, U251). It counts as cell-based. Conditions: 1 mM ATP.
Experiment [2] relates to HIF-1a. The experiment is described as above. It counts as cell-based. As to conditions: 1 mM doses. On the procedure:
We determined the ability of each shown structure to induce HIF by exposing digitonin-permeabilized human glioma cells (U87, U251) to 1 mM doses.
At four hours, ATP levels were measured in cell extracts using the luciferase method.
(§1) In order to investigate the mechanism of action of the 2-oxoacid HIF inducers that we identified we first determined their effects upon cellular ATP levels. […] As shown in the scheme in FIG. 1, cellular levels of HIF-1a can be elevated by blockade of proteasomal activity, ubiquitinylation, or prolyl hydroxylation. Inhibition of the proteasome by lactacystin beta-lactone (Lbl) leads to accumulation of HIF-1a in its polyubiquitinylated form which generally appears as a smear of higher molecular weight species on western blots. […] Cellular accumulation and nuclear translocation of HIF-1a can also be studied via immunohistochemistry. For this purpose we utilized U251 cells which are more adherent to cell culture dishes that the U87 cells.

For experiment [3], the system named is HIF-1a protein. The experiment in a line: HIF-1a levels in nuclear extracts of U87 glioma cells (western blot). In kind it is cell-based, human. Conditions: for Effect on induction of HIF-1a by glucose (Krebs buffer): 50 μM IAA, 1 mM 4-CIN, NAD or NADH 3 mM each, catalase 1000 and 2000 units/ml; for HIF-1a accumulation, glucose replaced with metabolite: glucose-free Krebs, 3 mM concentrations. The method, then: (A) U87 glioma cells cultured in DMEM were switched to Krebs buffer containing 5.5 mM glucose (Glc) and then evaluated for nuclear HIF-1a levels at various times by western blot analysis. (B) HIF-1a levels were measured after four hours incubation of cells in Krebs buffer containing the indicated glucose concentrations or with 5.5 mM 2-deoxyglucose (2-DG) substituted for glucose. (C) HIF-1a levels were measured in U87 cells cultured in glucose-free Krebs buffer following treatment for four hours under normoxia (21% oxygen) hypoxia (1% oxygen) or with 150 μm desferrioxamine (DFO). (D) Induction of HIF-1a by glucose was monitored in the presence of 50 μM IAA or 1 mM 4-CIN. […] Results are representative of experiments repeated at least three times.
Similar measurements were made in the presence of 50 μM IAA or in glucose-free Krebs buffer. […] HIF-1a induction by four hours treatment with 5.5 mM glucose-containing Krebs (Glc) is shown for comparison. (E) Digitonin-permeabilized cells were treated with 1% oxygen or Krebs containing either 5.5 mM glucose or 2 mM pyruvate in the presence of 50 μM IAA. Permeabilized cell in lanes 5 and 6 were treated with 3 mM NAD or NADH respectively in glucose free Krebs. Nuclear HIF-1a levels were determined four hours later. (F) HIF-1a levels were determined after four hour treatment of cells in glucose-free Krebs (lane 1) or 5.5 mM Glucose containing Krebs. […] (H) To measure the decay of the HIF-1a protein, HIF-1a measurements were made after four hour treatment under hypoxia (lane 1), four hours hypoxia followed by 30 minutes normoxia (lane 2), four hour treatment with 150 μM DFO (lane 3), four hours DFO followed by addition of 100 μM CHX for one hour (lane 4), four hours treatment with 2 mM pyruvate (lane 5), and four hours pyruvate followed by addition of 100 μM CHX for one hour (lane 6). (H) HIF-1a levels were determined in digitonin-permeabilized cells treated for four hour with Krebs containing no glucose (lane 1), 1 mM pyruvate (lane 2), or 1 mM pyruvate and 10 mM 2-OG (lane 3).
In order to resolve the biochemical mechanisms underlying this phenomenon, we studied the human glioma cell line U-87 under conditions of carefully defined culture media. Thus we studied these cells while culturing them in freshly prepared Krebs buffer, all components of which were known to us.
To precisely define the glucose metabolite mediating HIF-1a accumulation, we utilized pharmacological inhibitors of glycolysis as well as the direct addition of different glucose metabolites to cells (FIG. 4).
(In general: Immunoblotting shows a protein as a band on a membrane.)

In another experiment the test system is HRE containing promoter. The experiment in a line: HRE-luciferase reporter in U251 cells. In kind it is cell-based, human. The text has this: FIG. 18: 2-oxoacids activate HIF-mediated gene expression in human cell lines Effective gene expression by HIF not only involves HIF protein stabilization via inhibition of HPH enzymes but also HIF-1 binding to DNA, inhibition of FIH-1 activity, and gene transcription (see FIG. 1). (A) Glioma cells used in our studies express FIH-1 as assessed using RT-PCR. […] Expression of beta-actin, a housekeeping gene not under HIF regulation is not affected by pyruvate. […] (E) U373 cell were transfected with a green fluorescent protein (GFP) construct under the control of an HIF regulatory element (HRE) containing promoter and then cultured for eight hours in glucose-free medium under the indicated conditions. […] U251 cells stably transfected with a luciferase construct under the control of an HRE containing promoter were cultured for six hours in glucose free Krebs with the following conditions: 1=control, 2=1% oxygen, 3=pyruvate (2 mM), 4=OAA (2 mM), 5=Ethylpyruvate (2 mM), 6=Glucose (5.5 mM), 7=DMOG (0.5 mM), 8=Lactacystin-beta lactone ([…]).
FIG. 19: HIF-mediated gene expression is selectively reversed by ascorbate U251 cells stably expressing HRE-luciferase were cultured in glucose-free Krebs buffer with the indicated conditions for eight hours. Pyruvate, oxaloacetate, and DMOG were added at 1 mM each.
Effective gene expression by HIF not only involves HIF protein stabilization via inhibition of HPH enzymes but also HIF-1 binding to DNA, inhibition of FIH-1 activity, and gene transcription. The human gliomas that we utilized for most of our studies all express mRNA for FIH-1 (FIG. 18A). […] To directly assess activation of gene containing an HRE regulated promoter by the glucose metabolites pyruvate and oxaloacetate, we used U373 glioma cells transfected with an HRE-green fluorescent (HRE-GFP) construct that responds to HIF activation.
On the technique in general: In a reporter assay the amount or activity of a reporter protein is the signal.

For experiment [4], the target named is T1, HPH-1 (Homo sapiens, UniProt Q9H6Z9). Conditions: 20 mM competitor, ^35S-HPH-1, total binding.
T1 sequence (Q9H6Z9 whole entry): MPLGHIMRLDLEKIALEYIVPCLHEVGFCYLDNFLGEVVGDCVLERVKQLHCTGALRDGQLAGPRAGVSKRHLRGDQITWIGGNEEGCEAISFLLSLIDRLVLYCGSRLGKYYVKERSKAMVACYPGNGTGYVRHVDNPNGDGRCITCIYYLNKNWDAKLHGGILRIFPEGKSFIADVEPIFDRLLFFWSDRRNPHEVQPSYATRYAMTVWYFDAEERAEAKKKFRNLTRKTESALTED
Procedure: Following four further washes radiolabel associated with the pellets was measured via scintillation counting.
We also prepared ^35S-labeled HPH homologues from expression plasmids using the rabbit reticulocyte culture system (Bruick et al. (2001) Science 294, 1337-1340). The 2-OG column allowed us to investigate the binding of ^35S-HPH as well as potential competitors of binding.
Experiment [5] deals with T1, HPH-1. The experiment in a line: ^35S-pVHL capture assay, HPH-1. On the set-up: made in house; host or cells: rabbit reticulocyte in vitro translation from expression plasmids. As to conditions: assay optimization shown for HPH-1, dose curves. In kind it is biochemical.
Procedure: After incubating the peptide with the HPHs and the indicated reagents, ^35S-pVHL was added followed by addition of streptavidin-coated beads to pull down the HIF-1a peptide. The reaction was pelleted, the pellet was washed and then solubilized for SDS-PAGE analysis followed by autoradiography to reveal the captured ^35S-pVHL. Using in vitro translated HPH homologues we first optimized assay conditions with respect to the required HPH substrates and co-factors. […] Conditions: ascorbate=2 mM, 2-OG=2 mM, DTT=1 mM. […] In all assays 5 μl (about 20 ng) of enzyme and 1 μg of peptide was utilized.
Ascorbate concentrations were varied as indicated and OAA or Pyr were added where indicated at 1 mM.
After incubating 1 μg amount of the peptide with in vitro translated HPH and the indicated reagents, ^35S-pVHL was added followed by the addition of Streptavidin-coated beads to pull down the HIF-1a peptide. The reaction was pelleted, and the pellet was washed and solubilized for SDS-PAGE analysis followed by autoradiography to reveal the captured ^35S-pVHL. Using each of the in vitro translated HPH homologues we first optimized assay conditions with respect to the required HPH substrates and co-factors.
Experiment [6] deals with HIF-1a. The experiment in a line: HIF-1a decay after washout of the inducer in U251 and U87 cells. As to conditions: 1 mM pyruvate four hours, then glucose free Krebs in normoxia. It counts as cell-based, human. On the procedure:
FIG. 16: Ascorbate reverses the prolonged HIF-1a accumulation (A) Comparison of HIF-1a decay in U251 following induction with either hypoxia or pyruvate. U251 cells were cultured in glucose-free Krebs under hypoxia or with 1 mM pyruvate in normoxia for four hours. Following this cells were switched to glucose free Krebs in normoxia and fixed in formaldehyde at the indicated times. Cells were then stained for HIF-1a immunoreactivity. Note the rapid decay of nuclear HIF-1a staining after having been induced by hypoxia versus pyruvate. (B) U87 cell treated for four hours under hypoxia show prominent HIF-1a induction which is completely degraded by thirty minutes of re-oxygenation. U87 cells were treated in glucose-free Krebs buffer with or without 1 mM pyruvate or oxaloacetate.
HPH-2 has been reported to constitute the major HPH activity of most cells. We therefore evaluated the ability of ascorbate to prevent HIF-1a accumulation by pyruvate and oxaloacetate in living cells. […] To test this possibility we compared the reversibility of HIF-1a accumulation following induction with either hypoxia, pyruvate, or oxaloacetate. The rationale for these experiments stems from the well-known reversible inhibition of HPH activity by hypoxia (see FIG. 1). Thus HIF-1a accumulation and HIF activation during hypoxia is rapidly reversed upon re-oxygenation. […]

In experiment [7] the test system is HIF-1a protein. The experiment in a line: Nuclear HIF-1a accumulation in glioma cells by immunohistochemistry. In kind it is cell-based, human. Conditions: 2 mM, four hours, glucose-free Krebs buffer, Lbl 20 μM.
From the text: Cells were then washed, fixed and stained for HIF-1a protein.
as §1

“Also recorded” adds a separate entry of the source. Read-outs that look alike come from different tables or passages of the source.

This note sets out measurements from patent publication US20070173545A1, “Activation of hypoxia-inducible gene expression” (priority 2003, published 2007).

Turning to `Nc1ncnc2c1ncn2[C@@H]1O[C@H](COP(=O)(O)OP(=O)(O)OP(=O)(O)O)[C@@H](O)[C@H]1O` [ATP], in the experiment with HIF-1a [1], the “HIF-1a levels after direct addition of ATP” value is listed as “did not raise basal HIF-1a levels; also recorded: had no effect on HIF-1a levels”.

Consider `CC(C)CC(=O)C(=O)O` [alpha-ketoisocaproate], for which the “Ability to induce HIF (HIF-1a accumulation), structure-activity” value (“Ability to induce HIF” for short) in the experiment on HIF-1a [2] is “capable of stimulating HIF-1a accumulation”.

For the compound Catalase, the “Effect on induction of HIF-1a by glucose (Krebs buffer)” value (from here on “Effect on induction of HIF-1a”) in the experiment on HIF-1a protein [3] is “had no effect”.

For `O=CC[C@@H](O)[C@H](O)[C@H](O)CO` [2-deoxyglucose], the HIF-1a levels entry in the experiment with HIF-1a protein [3] (Krebs buffer with glucose or 5.5 mM 2-deoxyglucose, four hours, normoxia) was “could not be mimicked”.

For the compound `O=C(O)CCC(=O)C(=O)O` [2-oxoglutarate], in the experiment with HRE containing promoter (eight hours, oxaloacetate 1 mM, 2-oxoglutarate 10 mM), the “Reversal of HRE-luciferase activation by pyruvate or oxaloacetate” value was “No reversal was seen”. Moreover, the “Displacement of HPH binding to the 2-oxoglutarate column” value is “Nearly half of the total binding of HPH to the 2-oxoglutarate column could be displaced” at HPH-1 [4] and “could displace this binding” at HPH-1 [4] (listed as 2-OG). Moreover, the “Requirement of substrates and co-factors for HPH activity” value on HPH-1 [5] is on record as “absolutely required for activity”.

As for `NC(=O)C1=CN([C@@H]2O[C@H](COP(=O)(O)OP(=O)(O)OC[C@H]3O[C@@H](n4cnc5c(N)ncnc54)[C@H](O)[C@@H]3O)[C@@H](O)[C@H]2O)C=CC1` [NADH], the “Effect on induction of HIF-1a” value in the experiment with HIF-1a protein [3] is listed as “neither NAD or NADH (3 mM each) had any effect on this induction”.

With `O=C(O)CC(O)C(=O)O` (centres unmarked) [malate], in the experiment on HIF-1a [2], the “Ability to induce HIF” value was “ineffective”.

In the case of `C[C@H](N)C(=O)O` [alanine], the “HIF-1a accumulation, glucose replaced with metabolite” value (“HIF-1a accumulation, glucose replaced” below) with HIF-1a protein [3] (four hours) is “without effect”.

Take `CCOC(=O)C(C)=O` [ethylpyruvate, Ethylpyruvate]: in the experiment on HIF-1a protein [3] (four hours), the “HIF-1a accumulation, glucose replaced” value was “as pronounced as those of the known 2-oxoglutarate antagonist dimethyloxalylglycine (DMOG)”. Also, in the experiment on HIF-1a [2], the “Ability to induce HIF” value was “identified as HIF-1 activators”. In addition, the HRE-luciferase expression entry in the experiment on HRE containing promoter (six hours, glucose free Krebs, pyruvate, OAA, Ethylpyruvate 2 mM, Lactacystin-beta lactone 20 mM) was “prominent activation of luciferase gene expression”.

Take `NC(=O)c1ccc[n+]([C@@H]2O[C@H](COP(=O)([O-])OP(=O)(O)OC[C@H]3O[C@@H](n4cnc5c(N)ncnc54)[C@H](O)[C@@H]3O)[C@@H](O)[C@H]2O)c1` [NAD]: in the experiment with HIF-1a protein [3], the “Effect on induction of HIF-1a” value is on record as “neither NAD or NADH (3 mM each) had any effect on this induction”.

Regarding `CC(C)C(=O)C(=O)O` [alpha-ketoisovalerate], the “Ability to induce HIF” value with HIF-1a [2] is “capable of stimulating HIF-1a accumulation”.

For `O=C(O)C=Cc1ccc(O)cc1` [Cinnamate, 4-hydroxycinnamate], in the experiment on HIF-1a protein [3], the “Effect on induction of HIF-1a” value is reported as “did not prevent the effect of Krebs buffer on HIF-1a accumulation”.

As for `NC(=O)CI` [Iodoacetamide], the “Effect on induction of HIF-1a” value in the experiment on HIF-1a protein [3] was “completely blocked the ability of Krebs buffer to stimulate HIF-1a accumulation”.

In the case of `CCC(=O)C(=O)O` [alpha-ketobutyrate], the “Ability to induce HIF” value in the experiment on HIF-1a [2] was “ineffectiveness”.

For `O=S(=O)([O-])[O-].[Fe+2]` [Iron, iron sulfate], on HPH-1 [5], the “Requirement of substrates and co-factors for HPH activity” value was “absolutely required up to a maximal of about 100 μM”.

As to `CC(=O)C(=O)O` [pyruvate], the “Persistence of HIF-1a accumulation after washing out” value in the experiment on HIF-1a [6] is more than 40 min.

With succinate, in the experiment on HIF-1a protein [3] (four hours), the “HIF-1a accumulation, glucose replaced” value is “without effect”. Besides, the “Nuclear HIF-1a accumulation (immunostaining)” value with HIF-1a protein [7] is listed as “ineffectiveness”; in the experiment on HIF-1a protein [7] (listed as Succinate), “does not affect HIF-1a accumulation”. In addition, the “Displacement of HPH binding to the 2-oxoglutarate column” value on HPH-1 [4] is given as “could not; also recorded: but not by 20 mM succinate”.

Regarding `O=C(O)CCCC(=O)C(=O)O` [alpha-ketoadipate], the “Ability to induce HIF” value in the experiment on HIF-1a [2] is listed as “ineffectiveness”.

Take `CC[C@H](C)C(=O)C(=O)O` [alpha-keto-beta-methylvalerate]: the “Ability to induce HIF” value in the experiment on HIF-1a [2] is given as “capable of stimulating HIF-1a accumulation”.

As to lactate, the “HIF-1a accumulation, glucose replaced” value with HIF-1a protein [3] (four hours) was “activate HIF-1a directly”.

Take `O=C(O)CC(O)(CC(=O)O)C(=O)O` [citrate]: the “HIF-1a accumulation, glucose replaced” value in the experiment with HIF-1a protein [3] (four hours) is given as “without effect”.
